Measurements reported in PMC3433420 (PLoS ONE, 2012).
Residues, ends and D or L forms follow the SMILES beside them.

Legend:
Test in all cases: In-house protein microarrays (with or without 5 mM DTT), protein named per line
Type in all cases: binding
SH2 and PTB domains [1] = target: T1, SH2 and PTB domains (Homo sapiens, UniProt P20936)
T1 construct: thioredoxin; made in house; host or cells: BL21(DE3)pLysS E. coli
T1 sequence (P20936 1-1047): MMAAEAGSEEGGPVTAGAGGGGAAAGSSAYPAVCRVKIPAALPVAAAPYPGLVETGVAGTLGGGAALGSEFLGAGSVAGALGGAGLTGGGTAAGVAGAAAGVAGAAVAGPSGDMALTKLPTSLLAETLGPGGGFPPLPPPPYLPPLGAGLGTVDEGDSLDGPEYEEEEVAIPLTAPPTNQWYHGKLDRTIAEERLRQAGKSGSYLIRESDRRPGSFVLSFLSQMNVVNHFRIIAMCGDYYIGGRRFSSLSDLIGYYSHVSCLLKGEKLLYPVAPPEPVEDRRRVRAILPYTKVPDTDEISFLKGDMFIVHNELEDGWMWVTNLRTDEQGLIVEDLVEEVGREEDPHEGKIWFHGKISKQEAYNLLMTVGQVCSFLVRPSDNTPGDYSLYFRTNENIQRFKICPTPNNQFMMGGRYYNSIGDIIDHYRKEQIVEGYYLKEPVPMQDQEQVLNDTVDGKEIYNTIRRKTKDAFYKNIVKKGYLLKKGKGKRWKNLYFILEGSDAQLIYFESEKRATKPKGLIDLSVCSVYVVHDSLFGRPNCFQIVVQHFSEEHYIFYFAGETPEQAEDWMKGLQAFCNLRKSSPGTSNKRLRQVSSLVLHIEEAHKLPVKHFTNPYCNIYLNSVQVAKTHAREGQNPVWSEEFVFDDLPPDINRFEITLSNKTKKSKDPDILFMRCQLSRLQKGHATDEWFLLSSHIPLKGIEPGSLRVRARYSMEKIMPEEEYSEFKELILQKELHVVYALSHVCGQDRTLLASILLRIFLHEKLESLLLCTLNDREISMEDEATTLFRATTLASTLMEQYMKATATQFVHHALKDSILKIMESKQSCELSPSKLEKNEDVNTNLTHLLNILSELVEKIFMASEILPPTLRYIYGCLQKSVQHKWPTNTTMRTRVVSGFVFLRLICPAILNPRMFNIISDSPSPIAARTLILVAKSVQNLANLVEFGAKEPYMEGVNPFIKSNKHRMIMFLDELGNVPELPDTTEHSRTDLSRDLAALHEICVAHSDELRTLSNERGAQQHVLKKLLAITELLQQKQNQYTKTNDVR
Method in brief: (§1)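 Recombinant domains (~40 µM) spotted in duplicate on aldehyde slides, quenched 1 h at room temperature in HEPES/KCl/Tween-20 buffer pH 7.8 with 5 mM DTT and 1% BSA, then probed with rhodamine-labeled peptide. Thioredoxin-subtracted mean fluorescence fitted for KD.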

SH2 and PTB domains [2] = target: T2, SH2 and PTB domains (Homo sapiens, UniProt P42684); conditions: protein ABL2
T2 construct: thioredoxin; made in house; host or cells: BL21(DE3)pLysS E. coli
Method in brief: as §1

SH2 and PTB domains [3] = target: T3, SH2 and PTB domains (Homo sapiens, UniProt P78314); conditions: protein SH3BP2
T3 construct: thioredoxin; made in house; host or cells: BL21(DE3)pLysS E. coli
T3 sequence (P78314 1-561): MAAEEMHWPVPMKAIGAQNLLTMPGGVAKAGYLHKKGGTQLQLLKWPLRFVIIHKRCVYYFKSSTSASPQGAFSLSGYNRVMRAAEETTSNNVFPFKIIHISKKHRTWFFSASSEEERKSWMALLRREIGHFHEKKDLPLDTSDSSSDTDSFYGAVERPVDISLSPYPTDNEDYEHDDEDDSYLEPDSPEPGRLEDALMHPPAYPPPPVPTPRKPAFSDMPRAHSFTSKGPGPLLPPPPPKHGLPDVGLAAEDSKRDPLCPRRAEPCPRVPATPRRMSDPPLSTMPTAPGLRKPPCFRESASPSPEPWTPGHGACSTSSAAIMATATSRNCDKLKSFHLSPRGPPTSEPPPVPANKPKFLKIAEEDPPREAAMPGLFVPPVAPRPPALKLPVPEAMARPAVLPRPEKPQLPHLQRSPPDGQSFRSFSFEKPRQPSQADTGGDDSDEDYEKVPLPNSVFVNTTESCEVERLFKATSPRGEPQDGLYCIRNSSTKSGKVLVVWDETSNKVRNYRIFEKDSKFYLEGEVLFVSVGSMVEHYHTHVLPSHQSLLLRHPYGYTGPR
Method in brief: as §1

[4] = protein RASA1-NC, PM assay replicate # 39337, array fabrication # 39329
[5] = PM assay replicate # 39307, array fabrication # 39286
[6] = PM assay replicate # 39337, array fabrication # 39329
[7] = PM assay replicate # 39351, array fabrication # 39336
[8] = PM assay replicate # 39352, array fabrication # 39336

T2 sequence (P42684 whole entry, the tested form may be a part): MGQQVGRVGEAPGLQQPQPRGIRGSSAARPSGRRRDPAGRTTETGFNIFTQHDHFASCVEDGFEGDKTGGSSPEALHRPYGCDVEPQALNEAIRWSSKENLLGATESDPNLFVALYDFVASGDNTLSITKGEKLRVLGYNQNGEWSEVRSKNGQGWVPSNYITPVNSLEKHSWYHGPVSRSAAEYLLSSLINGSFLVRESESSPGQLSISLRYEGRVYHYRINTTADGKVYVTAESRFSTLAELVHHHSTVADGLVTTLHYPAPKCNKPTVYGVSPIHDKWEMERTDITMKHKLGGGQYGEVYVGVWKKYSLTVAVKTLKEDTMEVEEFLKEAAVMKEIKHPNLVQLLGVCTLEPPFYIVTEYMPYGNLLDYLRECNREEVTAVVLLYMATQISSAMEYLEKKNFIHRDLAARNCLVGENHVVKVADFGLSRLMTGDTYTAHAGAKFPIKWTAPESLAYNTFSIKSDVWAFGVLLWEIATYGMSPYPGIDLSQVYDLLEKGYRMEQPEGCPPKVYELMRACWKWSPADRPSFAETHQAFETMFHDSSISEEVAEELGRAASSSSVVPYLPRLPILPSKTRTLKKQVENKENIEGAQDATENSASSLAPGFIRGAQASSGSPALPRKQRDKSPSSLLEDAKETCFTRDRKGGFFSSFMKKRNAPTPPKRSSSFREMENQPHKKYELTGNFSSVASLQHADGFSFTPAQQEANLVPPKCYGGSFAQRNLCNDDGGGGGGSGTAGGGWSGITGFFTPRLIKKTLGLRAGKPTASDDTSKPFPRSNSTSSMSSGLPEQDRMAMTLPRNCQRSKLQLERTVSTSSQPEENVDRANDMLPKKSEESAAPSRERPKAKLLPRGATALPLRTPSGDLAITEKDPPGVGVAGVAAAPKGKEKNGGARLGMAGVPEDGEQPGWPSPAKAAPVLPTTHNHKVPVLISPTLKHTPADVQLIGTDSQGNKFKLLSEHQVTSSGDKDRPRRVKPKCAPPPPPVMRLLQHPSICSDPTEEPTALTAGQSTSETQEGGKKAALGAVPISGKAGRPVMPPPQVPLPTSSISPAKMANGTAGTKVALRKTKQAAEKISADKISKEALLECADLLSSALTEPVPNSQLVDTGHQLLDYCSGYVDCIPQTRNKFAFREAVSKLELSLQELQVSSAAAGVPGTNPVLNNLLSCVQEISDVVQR

SMILES	Kd (SH2 and PTB domains [1]; protein RASA1-C, PM assay replicate # 39337, array fabrication # 39329)	Kd (SH2 and PTB domains [1]; protein RASA1-N, PM assay replicate # 39336, array fabrication # 39329)	Kd (SH2 and PTB domains [1]; protein RASA1-N, PM assay replicate # 39337, array fabrication # 39329)	Kd (SH2 and PTB domains [1]; protein RASA1-NC, PM assay replicate # 39336, array fabrication # 39329)	Kd (SH2 and PTB domains [1]; [4])	Kd (SH2 and PTB domains [1]; protein RASA1-NC, PM assay replicate # 39603, array fabrication # 39392)	Kd (SH2 and PTB domains [2]; [5])	Kd (SH2 and PTB domains [2]; [6])	Kd (SH2 and PTB domains [3]; [5])	Kd (SH2 and PTB domains [3]; [6])	Kd (SH2 and PTB domains [3]; [7])	Kd (SH2 and PTB domains [3]; [8])	Kd (SH2 and PTB domains [1]; protein RASA1-N, PM assay replicate # 39307, array fabrication # 39286)	Kd (SH2 and PTB domains [2]; [8])
CC(C)C[C@H](NC(=O)[C@@H]1CCCN1C(=O)[C@H](C)NC(=O)[C@@H](NC(=O)[C@H](Cc1ccc(OP(=O)(O)O)cc1)NC(=O)CNC(=O)[C@H](CC(=O)O)NC(=O)[C@@H](NC(=O)[C@@H](N)CCC(=O)O)[C@@H](C)O)C(C)C)C(=O)N[C@H](C(=O)N[C@@H](CS)C(=O)N[C@@H](CO)C(=O)N[C@@H](CC(=O)O)C(=O)O)[C@@H](C)O [ErbB2 pY1127]	1210 nM	590 nM	110 nM	120 nM	30 nM	60 nM	–	–	–	–	–	–	–	–
CCN(CC)c1ccc2c(-c3ccc(C(=O)N[C@@H](CC(N)=O)C(=O)NCC(=O)N4CCC[C@H]4C(=O)N4CCC[C@H]4C(=O)N[C@@H](CCCCN)C(=O)N[C@@H](C)C(=O)N[C@@H](CCC(=O)O)C(=O)N[C@@H](CC(=O)O)C(=O)N[C@@H](CCC(=O)O)C(=O)N[C@@H](Cc4ccc(OP(=O)(O)O)cc4)C(=O)N[C@H](C(=O)N[C@@H](CC(N)=O)C(=O)N[C@@H](CCC(=O)O)C(=O)N4CCC[C@H]4C(=O)N[C@@H](CC(C)C)C(=O)N[C@@H](Cc4ccc(O)cc4)C(=O)N[C@@H](CC(C)C)C(=O)N[C@@H](CC(=O)O)C(=O)O)C(C)C)cc3C(=O)[O-])c3ccc(=[N+](CC)CC)cc-3oc2c1 [ErbB4 1202 (18-mer)] (HELM PEPTIDE1{[CCN(CC)c1ccc2c(-c3ccc(C(=O)[*:2])cc3C(=O)[O-])c3ccc(=[N+](CC)CC)cc-3oc2c1].N.G.P.P.K.A.E.D.E.[O=C([C@H](Cc1ccc(OP(=O)(O)O)cc1)N[*:1])[*:2]].V.N.E.P.L.Y.L.D}$$$$V2.0)	–	–	–	–	8560 nM	–	1000 nM	970 nM	500 nM	2060 nM	1610 nM	15930 nM	660 nM	–
CC[C@H](C)[C@H](NC(=O)[C@H](CC(N)=O)NC(=O)[C@H](CC(N)=O)NC(=O)[C@H](CCCCN)NC(=O)[C@H](CC(C)C)NC(=O)[C@H](Cc1ccc(OP(=O)(O)O)cc1)NC(=O)[C@H](CCC(=O)O)NC(=O)[C@H](C)NC(=O)[C@H](CCCCN)NC(=O)CNC(=O)[C@H](CC(C)C)NC(=O)[C@@H](NC(=O)[C@H](CC(N)=O)NC(=O)[C@H](C)NC(=O)[C@@H](N)Cc1ccccc1)[C@@H](C)O)C(=O)N[C@@H](CC(C)C)C(=O)N[C@@H](CO)C(=O)N[C@@H](CC(=O)O)C(=O)O [ErbB4 pY1221 (18-mer)] (HELM PEPTIDE1{F.A.N.T.L.G.K.A.E.[O=C([C@H](Cc1ccc(OP(=O)(O)O)cc1)N[*:1])[*:2]].L.K.N.N.I.L.S.D}$$$$V2.0)	–	–	–	–	–	–	280 nM	–	1240 nM	–	2360 nM	10860 nM	–	910 nM
